System: Staphylococcus aureus ATCC 6538
Test: Antibacterial test on treated fabric (AATCC 147:2011; washing standard BS EN ISO 6330 5A)
Format: cell-based
Design: key to Bacteria Growth: (—): no bacterial colonies directly under the treated sample in the contact area were observed
Details: 37° C. ± 2° C., 18-24 hrs, no washing; for Bacteria Growth: directly under the treated fabric sample in the contact area; for Inhibition Zone (width of clear zone of inhibition): woven fabric treated with the compound, sample 25 × 50 mm
Procedure: In order to determine if the antimicrobic activity of the textile fabrics, Washing Standart: BS EN ISO 6330 5A and Antibacterial Test Standart: AATCC 147:2011 were followed. Details of the method are given in the experimental section of the description.
• Antibacterial tests were carried out using Washing Standart: BS EN ISO 6330 5A, and Antibacterial Test Standart: AATCC 147:2011.

SMILES	Bacteria Growth	Inhibition Zone (width of clear zone of inhibition) [mm]
Cc1cc(/N=C/c2cccc3ccccc23)on1 [Example 1, 3-methyl-N-(1-naphthalenylmethylen)-5-isoxazolamine]	(—)	0
Cc1cc(/N=C/c2cc3ccccc3c3ccccc23)on1 [Example 3, 3-methyl-N-(9-phenanthrenylmethylen)-5-isoxazolamine]	(—)	0
Cc1cc(/N=C/c2ccc3ccccc3c2)on1 [Example 2, 3-methyl-N-(2-naphthalenylmethylen)-5-isoxazolamine]	(—)	0
